Source: ChEMBL document CHEMBL4371084, “Design, synthesis and biological evaluation of novel HIV-1 protease inhibitors with pentacyclic triterpenoids as P2-ligands” (Bioorg Med Chem Lett, 2019)

Target: Protease (Human immunodeficiency virus 1, UniProt Q9YQ12)
Test: Inhibition of HIV1 protease expressed in Escherichia coli using Arg-Glu (EDANS)-Ser-Gln-Asn-Tyr-Pro-Ile-Val-Gln-Lys(DABCYL)-Arg as substrate preincubated for 20 to 30 mins followed by substrate addition and measured for 10 mins by FRET assay

Protease, sequence (Q9YQ12 whole entry): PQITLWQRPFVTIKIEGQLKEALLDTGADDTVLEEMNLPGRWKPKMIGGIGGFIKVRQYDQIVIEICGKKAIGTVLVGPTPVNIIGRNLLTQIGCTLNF

SMILES	IC50
CC(C)CN(C[C@@H](O)[C@H](Cc1ccccc1)NC(=O)[C@]12CC[C@@H](C)[C@H](C)[C@H]1C1=CC[C@@H]3[C@@]4(C)C[C@@H](O)[C@H](O)[C@@](C)(CO)[C@@H]4CC[C@@]3(C)[C@]1(C)CC2)S(=O)(=O)c1ccc(N)cc1	300 nM
COc1ccc(S(=O)(=O)N(CC(C)C)C[C@@H](O)[C@H](Cc2ccccc2)NC(=O)[C@]23CC[C@@H](C)[C@H](C)[C@H]2C2=CC[C@@H]4[C@@]5(C)C[C@@H](O)[C@H](O)[C@@](C)(CO)[C@@H]5CC[C@@]4(C)[C@]2(C)CC3)cc1	150 nM
COc1ccc(S(=O)(=O)N(CC(C)C)C[C@@H](O)[C@H](Cc2ccccc2)NC(=O)[C@]23CCC(C)(C)C[C@H]2C2=CC[C@@H]4[C@@]5(C)CC[C@H](O)C(C)(C)[C@@H]5CC[C@@]4(C)[C@]2(C)CC3)cc1	240 nM
CC(C)CN(C[C@@H](O)[C@H](Cc1ccccc1)NC(=O)[C@]12CC[C@@H](C)[C@H](C)[C@H]1C1=CC[C@@H]3[C@@]4(C)CCC(=O)C(C)(C)[C@@H]4CC[C@@]3(C)[C@]1(C)CC2)S(=O)(=O)c1ccc(N)cc1	2370 nM
COc1ccc(S(=O)(=O)N(CC(C)C)C[C@@H](O)[C@H](Cc2ccccc2)NC(=O)[C@]23CC[C@@H](C)[C@H](C)[C@H]2C2=CC[C@@H]4[C@@]5(C)CC[C@H](O)C(C)(C)[C@@H]5CC[C@@]4(C)[C@]2(C)CC3)cc1	460 nM
COc1ccc(S(=O)(=O)N(CC(C)C)C[C@@H](O)[C@H](Cc2ccccc2)NC(=O)[C@]2(C)CC[C@H]3C4=CC(=O)[C@@H]5[C@@]6(C)CC[C@H](O)C(C)(C)[C@@H]6CC[C@@]5(C)[C@]4(C)CC[C@@]3(C)C2)cc1	480 nM
CC(C)CN(C[C@@H](O)[C@H](Cc1ccccc1)NC(=O)[C@]12CCC(C)(C)C[C@H]1C1=CC[C@@H]3[C@@]4(C)CC[C@H](O)C(C)(C)[C@@H]4CC[C@@]3(C)[C@]1(C)CC2)S(=O)(=O)c1ccc(N)cc1	170 nM
C=C(C)[C@@H]1CC[C@]2(C(=O)N[C@@H](Cc3ccccc3)[C@H](O)CN(CC(C)C)S(=O)(=O)c3ccc(N)cc3)CC[C@]3(C)[C@H](CC[C@@H]4[C@@]5(C)CC[C@H](O)C(C)(C)[C@@H]5CC[C@]43C)[C@@H]12	610 nM
C=C(C)[C@@H]1CC[C@]2(C(=O)N[C@@H](Cc3ccccc3)[C@H](O)CN(CC(C)C)S(=O)(=O)c3ccc(OC)cc3)CC[C@]3(C)[C@H](CC[C@@H]4[C@@]5(C)CC[C@H](O)C(C)(C)[C@@H]5CC[C@]43C)[C@@H]12	210 nM
CC(C)CN(C[C@@H](O)[C@H](Cc1ccccc1)NC(=O)[C@]1(C)CC[C@@H]2C3=CC(=O)[C@@H]4[C@@]5(C)CC[C@H](O)C(C)(C)[C@@H]5CC[C@@]4(C)[C@]3(C)CC[C@@]2(C)C1)S(=O)(=O)c1ccc([N+](=O)[O-])cc1	1080 nM
CC(C)CN(C[C@@H](O)[C@H](Cc1ccccc1)NC(=O)[C@]12CC[C@@H](C)[C@H](C)[C@H]1C1=CC[C@@H]3[C@@]4(C)C[C@@H](O)[C@H](O)[C@@](C)(CO)[C@@H]4CC[C@@]3(C)[C@]1(C)CC2)S(=O)(=O)c1ccc([N+](=O)[O-])cc1	170 nM
COc1ccc(S(=O)(=O)N(CC(C)C)C[C@@H](O)[C@H](Cc2ccccc2)NC(=O)[C@]2(C)CC[C@@H]3C4=CC(=O)[C@@H]5[C@@]6(C)CC[C@H](O)C(C)(C)[C@@H]6CC[C@@]5(C)[C@]4(C)CC[C@@]3(C)C2)cc1	1850 nM
CC(C)CN(C[C@@H](O)[C@H](Cc1ccccc1)NC(=O)[C@]1(C)CC[C@@H]2C3=CC(=O)[C@@H]4[C@@]5(C)CC[C@H](O)C(C)(C)[C@@H]5CC[C@@]4(C)[C@]3(C)CC[C@@]2(C)C1)S(=O)(=O)c1ccc(N)cc1	490 nM
CC(C)CN(C[C@@H](O)[C@H](Cc1ccccc1)NC(=O)[C@]12CC[C@@H](C)[C@H](C)[C@H]1C1=CC[C@@H]3[C@@]4(C)CCC(=O)C(C)(C)[C@@H]4CC[C@@]3(C)[C@]1(C)CC2)S(=O)(=O)c1ccc([N+](=O)[O-])cc1	220 nM
C=C(C)[C@@H]1CC[C@]2(C(=O)N[C@@H](Cc3ccccc3)[C@H](O)CN(CC(C)C)S(=O)(=O)c3ccc([N+](=O)[O-])cc3)CC[C@]3(C)[C@H](CC[C@@H]4[C@@]5(C)CC[C@H](O)C(C)(C)[C@@H]5CC[C@]43C)[C@@H]12	1050 nM
CC(C)CN(C[C@@H](O)[C@H](Cc1ccccc1)NC(=O)[C@]1(C)CC[C@H]2C3=CC(=O)[C@@H]4[C@@]5(C)CC[C@H](O)C(C)(C)[C@@H]5CC[C@@]4(C)[C@]3(C)CC[C@@]2(C)C1)S(=O)(=O)c1ccc([N+](=O)[O-])cc1	500 nM
COc1ccc(S(=O)(=O)N(CC(C)C)C[C@@H](O)[C@H](Cc2ccccc2)NC(=O)[C@]23CC[C@@H](C)[C@H](C)[C@H]2C2=CC[C@@H]4[C@@]5(C)CCC(=O)C(C)(C)[C@@H]5CC[C@@]4(C)[C@]2(C)CC3)cc1	370 nM
CC(C)CN(C[C@@H](O)[C@H](Cc1ccccc1)NC(=O)[C@]12CC[C@@H](C)[C@H](C)[C@H]1C1=CC[C@@H]3[C@@]4(C)CC[C@H](O)C(C)(C)[C@@H]4CC[C@@]3(C)[C@]1(C)CC2)S(=O)(=O)c1ccc(N)cc1	120 nM
CC(C)CN(C[C@@H](O)[C@H](Cc1ccccc1)NC(=O)[C@]1(C)CC[C@H]2C3=CC(=O)[C@@H]4[C@@]5(C)CC[C@H](O)C(C)(C)[C@@H]5CC[C@@]4(C)[C@]3(C)CC[C@@]2(C)C1)S(=O)(=O)c1ccc(N)cc1	580 nM
CC(C)CN(C[C@@H](O)[C@H](Cc1ccccc1)NC(=O)[C@]12CCC(C)(C)C[C@H]1C1=CC[C@@H]3[C@@]4(C)CC[C@H](O)C(C)(C)[C@@H]4CC[C@@]3(C)[C@]1(C)CC2)S(=O)(=O)c1ccc([N+](=O)[O-])cc1	150 nM
CC(C)CN(C[C@@H](O)[C@H](Cc1ccccc1)NC(=O)[C@]12CC[C@@H](C)[C@H](C)[C@H]1C1=CC[C@@H]3[C@@]4(C)CC[C@H](O)C(C)(C)[C@@H]4CC[C@@]3(C)[C@]1(C)CC2)S(=O)(=O)c1ccc([N+](=O)[O-])cc1	400 nM

Target: Protease (Human immunodeficiency virus 1) (UniProt Q9YQ12)
Sequence (Q9YQ12 as listed by the source): as the sequence (Q9YQ12 whole entry) above
Test: Potency index, ratio of ursolic acid IC50 to test compound IC50 for HIV1 protease expressed in Escherichia coli

SMILES	Ratio IC50
CC(C)CN(C[C@@H](O)[C@H](Cc1ccccc1)NC(=O)[C@]12CC[C@@H](C)[C@H](C)[C@H]1C1=CC[C@@H]3[C@@]4(C)CC[C@H](O)C(C)(C)[C@@H]4CC[C@@]3(C)[C@]1(C)CC2)S(=O)(=O)c1ccc(N)cc1	67
